Results taken from the NIST ThermoML archive (doi:10.1016/j.fluid.2010.07.011).

Test: xn = mol fraction of the nth substance listed
Settings: 101.33 kPa, Liquid, Vibrating tube method

CCCCCCN [1-hexanamine] + CCCCCCC
mass density [kg/m3]
Settings | 288.15 K | 293.15 K | 298.15 K | 303.15 K | 308.15 K | 313.15 K | 318.15 K | 323.15 K
x1 = 0.0497 | 691.084 | 686.872 | 682.638 | 678.375 | 674.087 | 669.766 | 665.416 | 661.034
x1 = 0.0712 | 692.472 | 688.259 | 684.023 | 679.762 | 675.473 | 671.155 | 666.804 | 662.428
x1 = 0.1 | 694.376 | 690.164 | 685.929 | 681.666 | 677.379 | 673.063 | 668.716 | 664.339
x1 = 0.1394 | 697.059 | 692.841 | 688.603 | 684.341 | 680.052 | 675.736 | 671.39 | 667.016
x1 = 0.2017 | 701.458 | 697.235 | 692.989 | 688.722 | 684.431 | 680.114 | 675.766 | 671.395
x1 = 0.3011 | 708.825 | 704.586 | 700.331 | 696.055 | 691.758 | 687.436 | 683.088 | 678.716
x1 = 0.4001 | 716.491 | 712.241 | 707.974 | 703.691 | 699.388 | 695.063 | 690.714 | 686.344
x1 = 0.5105 | 725.411 | 721.153 | 716.879 | 712.593 | 708.285 | 703.959 | 699.61 | 695.241
x1 = 0.5996 | 732.829 | 728.568 | 724.292 | 720.004 | 715.698 | 711.371 | 707.026 | 702.664
x1 = 0.6802 | 739.756 | 735.495 | 731.219 | 726.929 | 722.623 | 718.301 | 713.958 | 709.598
x1 = 0.7495 | 745.832 | 741.569 | 737.294 | 733.009 | 728.705 | 724.386 | 720.046 | 715.689
x1 = 0.7984 | 750.175 | 745.914 | 741.641 | 737.357 | 733.056 | 728.74 | 724.406 | 720.058
x1 = 0.8484 | 754.693 | 750.434 | 746.164 | 741.883 | 737.584 | 733.272 | 728.943 | 724.594
x1 = 0.8999 | 759.4 | 755.143 | 750.877 | 746.597 | 742.304 | 737.996 | 733.672 | 729.332
x1 = 0.9467 | 763.694 | 759.441 | 755.177 | 750.901 | 746.613 | 742.31 | 737.99 | 733.656
x1 = 1 | 768.637 | 764.385 | 760.128 | 755.856 | 751.573 | 747.276 | 742.962 | 738.636
